Assay results from a melting point compilation (Tetko et al.).

SMILES	melting point [°C]
Cn1ccnc1C=O	35 to 39
C=CCOOC(C)(C)c1ccccc1	60
O=C(NC(=O)c1c(F)cccc1F)Nc1ccc(Oc2ccc(C(F)(F)F)cc2Cl)cc1F	167
c1ccc(C2=NCCN=C2c2ccccc2)cc1	160 to 163
O=C(O)C1OC1C(=O)O (configuration not stated)	148 to 149
CC12CCC(C(=O)C(Br)(Br)C1=O)C2(C)C (configuration not stated)	155
Nc1cccc(CN2CCCC2)c1	72 to 74
O=C=Nc1cccc(COc2ccccc2)c1	51 to 53
CC(=O)N[C@@H](CCCCN)C(=O)O	256 to 258
C=C1C(=O)C23C4CC5C(C)(C)CCC(OC(C)=O)C5(C)C2C(OC(C)=O)CC1(OC(C)=O)C3OC(C)(C)O4 (configuration not stated)	221
O=C(OCc1ccccc1)N1CCC(CBr)CC1	68
COC(=O)C1=C(N)Oc2cc(C)n(CCc3ccccc3)c(=O)c2C1c1cccc([N+](=O)[O-])c1 (configuration not stated)	216
BrC(Br)(Br)c1ccc2cc3ccc(C(Br)(Br)Br)nc3cc2n1	190
Cc1cnc(NS(=O)(=O)c2ccc(N)cc2)nc1	262
Cn1ccc2cc(N=C=O)ccc21	42.5 to 44.5
Cc1ccc(C(N)=O)cc1[N+](=O)[O-]	166
O=Cc1ccccc1N1CCN(Cc2ccccc2)CC1	58 to 60
O=C1OC(=Cc2ccccc2)c2ccccc21	100
c1ccc(-c2sc(-c3ccccc3)c3ccccc23)cc1	114 to 119
CCC12CCCN3CCC4(c5cccc(OC)c5N(C(C)=O)C4CC1)C32 (configuration not stated)	208
O=C(Nc1ccc([N+](=O)[O-])cc1)Nc1ccc([N+](=O)[O-])cc1	312
CCCCCCCCCCCCCC(=O)OC(C)C	3
Nc1cc(Cl)c(Cl)c(Cl)c1Cl	118 to 119
CCOC(=O)OCC	-43
C=CCC1(CC(=C)Br)C(=O)NC(=O)NC1=O	168

SMILES	melting point [°C]
S=C=Nc1c(Cl)cccc1Cl	43
O=C(O)c1cc2cc(Br)ccc2o1	257 to 260
CC(=O)OC1CC[C@@]2(C)C(CC[C@@H]3[C@@H]2CC[C@@]2(C)[C@H]3CC[C@@]2(C#Cc2ccccc2)OC(C)=O)C1 (some centres not stated)	166
COc1ccc(F)cc1C#N	117
Oc1c(F)c(F)c2c(F)c(F)c(F)c(F)c2c1F	120 to 124
O=[N+]([O-])c1ccc(SCl)c([N+](=O)[O-])c1	99
Nc1cc(-c2ccccc2)no1	109
CC(=O)C(=O)Nc1ccccc1	100
CSc1nc(N)cc(N)n1	189 to 193
CCCCOC(=O)c1ccccc1C(=O)OCCCC	-35
CC(C)Nc1ccc(Cl)cc1[N+](=O)[O-]	72 to 74
O=C(O)CCCc1ccc(F)cc1	45 to 47
NS(=O)(=O)C=Cc1ccccc1	138 to 140
CC(C)(C)C1=CC(=Cc2cc(C(C)(C)C)c(O)c(C(C)(C)C)c2)C=C(C(C)(C)C)C1=O	156 to 160
CCc1c(O)c(=O)ccn1N1CCOCC1	258
CC12CCCCC1CCC1C2CCC2(C)C1CCC2(O)C#Cc1ccccc1 (configuration not stated)	108 to 111
COC(=O)c1cc(O)no1	159 to 160
c1cc(OCC2CO2)cc(OCC2CO2)c1 (configuration not stated)	42.5
CC(=O)c1cccc(S(=O)(=O)Cl)c1	43
N#C/C(=C\c1cccs1)c1nc(-c2cccc3ccccc23)cs1	205 to 207
CC(=O)OC1(C(C)=O)CCC2C3CCC4=CC(=O)CCC4(C)C3(F)C(O)CC21C (configuration not stated)	268
CCC(CO)NC(=O)C1C=C2c3cccc4[nH]cc(c34)CC2N(C)C1 (configuration not stated)	172
CC12CCCCC1CCC1C2CCC2(C)C1CCC21OCCO1 (configuration not stated)	143
C1C2CC3CC1CC(SSC14CC5CC(CC(C5)C1)C4)(C2)C3	225 to 228
CC(Oc1ccc(Cl)cc1Cl)C(=O)Nc1ccc2nc(SCc3ccccc3)sc2c1 (configuration not stated)	169

SMILES	melting point [°C]
NC(=O)c1c(F)c(F)c(N)c(F)c1F	183 to 187
COc1ccccc1C1OC(=O)CC1C(=O)O (configuration not stated)	124 to 125
O=C(O)C1(c2c(F)cccc2Cl)CCCCC1	128 to 134
CC(=O)Nc1ccc(C(=O)C2CCNCC2)cc1	171 to 173
CCCCCCCCCCCCCC(=O)Oc1ccc(N=Cc2cccnc2)cc1	82.7
c1ccc2cc(SSc3ccc4ccccc4c3)ccc2c1	140
C(COCCOCC1CO1)OCCOCC1CO1 (configuration not stated)	-13
N#C/C(=C\c1ccc(Cl)cc1)c1nc2ccccc2s1	150
O=[N+]([O-])c1ccc(F)c2nonc12	52
Nc1ccc(C=Cc2cccc(N)c2)cc1	109
CCC(C)(N)P(=O)(O)O (configuration not stated)	268 to 272
CCCCC(=O)OCN1C(=O)NC(c2ccccc2)(c2ccccc2)C1=O	91
CCOC(=O)c1sc(SC)c2c1CCCC2=O	108 to 111
CC(=O)N(c1ccccc1)c1nc(CCl)cs1	113 to 115
NNC(=O)Cc1nc(-c2cnccn2)no1	184 to 186
CC(CCC(=O)O)C1CCC2C3C=CC4CCCCC4(C)C3CCC12C (configuration not stated)	152 to 160
C#CCON1C(=O)c2ccccc2C1=O	149 to 152
Cn1ccc2c(C(=O)O)cccc21	243 to 245
Cc1ccc(S(=O)(=O)NC(=O)NC2CCCCC2)cc1	175
O=C(O)C(Cl)(Cl)CCl	65.5
NC(=O)CC[C@H](NC(=O)OCc1ccccc1)C(=O)O	135 to 137
Brc1ccc(Oc2cc(Br)ccc2Br)c(Br)c1	< 20
O=C1c2cccc(O)c2C(=O)c2c(O)cccc21	193
Cc1cc(C(C)(C)C)c(C)cc1O	71.2
C/C(=N\NC(N)=O)C1=CC[C@]2(C)C3CCC4=C(CCC4(C)C)C3CC[C@H]2C1 (some centres not stated)	239

SMILES	melting point [°C]
O=Cc1ccc(-c2ccncc2)cc1	101 to 104
CC(C)(O)C#CC(C)(C)O	95
COc1ccccc1-c1nnc2n1NC(c1ccc(Cl)cc1)S2 (configuration not stated)	203
COC(=O)CC(CC(=O)OC)(c1cc(C)c(O)c(C)c1)c1cc(C)c(O)c(C)c1	199
COc1ccc(Cc2c(N)n[nH]c2N)cc1	152 to 154
NC(=O)C(N)c1ccccc1 (configuration not stated)	125 to 129
O=C(Oc1c(F)c(F)c(F)c(F)c1F)c1ccc(-c2cnco2)cc1	141 to 143
COC(=O)CCCCCCCCCCCC(=O)OC	36
CC(C)(C)OC(=O)N[C@@H](Cc1ccc(Br)cc1)C(=O)O	118
C=C(C)CCCCCCCCCCCCCCCC	14
CC(C)S(=O)(=O)n1c(N)nc2ccc(C(=NO)c3ccccc3)cc21	198
O=C1/C(=N/Nc2cccnc2)C(C(F)(F)F)=NN1c1ccccc1	161
OCC(I)CC(F)(F)C(F)(F)C(F)(F)C(F)(F)C(F)(F)C(F)(F)C(F)(F)C(F)(F)F (configuration not stated)	54 to 55
O=C(NCc1ccccc1)C(C(F)(F)F)C(F)(F)F	194
O=S(=O)(Cl)c1ccc(-c2ccc(Cl)cc2)cc1	109 to 110
O=C(OCC1OC(Oc2ccccc2CO)C(O)C(O)C1O)c1ccccc1 (configuration not stated)	180
CCOC(=O)c1cc(C)n(-c2cc(C)n(C)n2)n1	72
NNC(=O)C1SCCN1S(=O)(=O)c1ccc(Cl)cc1 (configuration not stated)	200 to 201
Cc1cc(N)on1	83
Cc1nn(C)c2ncc3c(=O)[nH]n(C)c3c12	300
CCSc1nc(NC(C)C)nc(NC(C)C)n1	105
Cc1ccc(C=O)c(O)c1	60.5
CC(C)C=CC(=O)O	35
COC(=O)c1cscc1Sc1ccc(Cl)cc1	77 to 79
CC(=Nc1c(O)ccc2ccccc12)c1c(O)c2ccccc2n(-c2ccccc2)c1=O	219

SMILES	melting point [°C]
CN1CCOc2cc(Br)cnc21	77 to 79
FC(F)(F)C1(F)C(F)(F)C(F)(F)C(F)(F)C(F)(F)C1(F)C(F)(F)F (configuration not stated)	-56
COc1cc(C(=O)OCCCN(C)CCN(C)CCCOC(=O)c2cc(OC)c(OC)c(OC)c2)cc(OC)c1OC	76
O=C1CCCCC1Cl (configuration not stated)	23
Cc1ccc2c(c1)C(=O)CC2	58
Cc1ccc(-c2cccc(-c3ccc(C)cc3)n2)cc1	165
CCN(Cc1c(F)cccc1Cl)c1c([N+](=O)[O-])cc(C(F)(F)F)cc1[N+](=O)[O-]	102
CSc1nnc(S)s1	136
CC(=O)Oc1ccc(OC(C)=O)c(C(C)(C)C)c1	64.5 to 65.5
N#Cc1cc(/N=C/C=C/c2ccccc2)n(-c2c(Cl)cc(C(F)(F)F)cc2Cl)n1	160
NCCCCCCCC(=O)O	195
O=C1CCN(C(=O)c2ccccc2)CC1	56 to 59
Clc1cc2oc3cc(Cl)c(Cl)c(Cl)c3c2cc1Cl	225
CC(=O)Nc1cc(C(F)(F)F)cc(C(F)(F)F)c1	161
Cc1cc([N+](=O)[O-])ccc1N=C=S	82 to 84
CCOC(=O)C1(c2cccc(O)c2)CCN(C)CC1	110
COC(=O)C1Cc2c([nH]c3ccccc23)C(C)(C)N1 (configuration not stated)	202 to 204
O=C1NN(c2ccccc2)C(=O)C1=Cc1ccc(Cl)cc1	322
O=C1/C(=N\Nc2cccc(F)c2)C(C(F)(F)F)=NN1c1ccccc1	105 to 107
FC(F)(F)C(F)(F)C(F)(F)C(F)(F)F	-128
OC(c1ccc(-c2ccc(C(O)(C(F)(F)F)C(F)(F)F)cc2)cc1)(C(F)(F)F)C(F)(F)F	125 to 126
O=Cc1cccc(-c2cncnc2)c1	148 to 149
